Results on four molecules are retold here after patent publication US20160320417A1, “METHODS AND KITS FOR DETERMINING RISK FOR DEVELOPING ALZHEIMER'S DISEASE AND PREVENTION OR TREATMENT THEREOF” (Loma Linda University, priority 2013, published 2016).

For one test, the system named is peripheral blood cells. Nature of the test: filipin staining of peripheral blood cells measured by flow cytometry after inducing cholesterol dysregulation. The format is cell-based. The conditions noted are these: peripheral blood cells (PBCs) treated with the compound; FIG. 7. The source says:
In some embodiments, peripheral blood cells can be isolated and filipin levels measured by flow cytometry. This can allows for the cells to be isolated inexpensively and at minimal risk to the patient from simple venipuncture rather than requiring the invasive punch biopsy method for collection of fibroblasts as used and described in the results presented herein. A venipuncture can be performed with a venipuncture assembly including, for example, but not limited to, a plastic hub, a hydrodermic needle, a vacuum tube, a syringe, a butterfly needle, and/or other blood collection or vanipuncture devices known in the art. Accordingly, the ability to isolate peripheral blood cells and measure the filipin levels by flow cytometry can facilitate the commercialization of the testing procedure and techniques described herein for preventing and detecting disease. The isolation of peripheral blood cells and measuring of the filipin levels by flow cytometry was tested in two ways. […] Cholesterol dysregulation was induced by treating the cells with Ul 8666A, a compound that inhibits cholesterol synthesis and intracellular trafficking.
Background: A flow cytometer gives signals particle by particle.

The conditions of test [1]: clinical trials, cited from earlier work; for mitigation of clinical AD progression: drugs aimed at preventing Aβ aggregates from forming into SPs.

With `CCN(CC)CCO[C@H]1CC[C@@]2(C)C(=CC[C@@H]3[C@@H]2CC[C@]2(C)C(=O)CC[C@@H]32)C1` [U18666A], the “effect on filipin staining (filipin fluorescence)” value in the test on peripheral blood cells is recorded as “dose-dependent effect”.
As to `NCCCS(=O)(=O)O` [homotaurine], in test [1], the “mitigation of clinical AD progression” value was “failed to mitigate clinical AD progression”.
Consider `O[C@H]1[C@H](O)[C@@H](O)[C@H](O)[C@@H](O)[C@@H]1O` [scyllo-inositol], for which the “mitigation of clinical AD progression” value in test [1] was “failed to mitigate clinical AD progression”.
For `C[C@@H](C(=O)O)c1ccc(-c2ccccc2)c(F)c1` [tarenflurbil], in test [1] (compounds targeting γ-secretase, even when reducing Aβ levels), the “benefit to cognitive function” value is “no benefit to cognitive function”.
